In ChEMBL document CHEMBL4330108, “The association between anti-tumor potency and structure-activity of protein-kinases inhibitors based on quinazoline molecular skeleton” (Bioorg Med Chem, 2019):
pIC50: −log10 of the molar value.

Columns and labels:
[1] = Inhibition of bovine brain PI3K using phosphatidylinositol as substrate preincubated for 5 mins followed by [gamma-32P]ATP addition and measured after 10 mins by liquid scintillation counting method; design: species or system Bos taurus
[2] = biological target: T1, Vascular endothelial growth factor receptor 2 (Homo sapiens, UniProt P35968); test: Inhibition of VEGFR2 (unknown origin) using FAM-labelled peptide as substrate measured after 10 mins
[3] = biological target: Vascular endothelial growth factor receptor 1 (Homo sapiens, UniProt P17948); test: Inhibition of VEGFR1 (unknown origin)
Histone deacetylase 1 = Histone deacetylase 1 (Homo sapiens, UniProt Q13547); test: Inhibition of HDAC1 (unknown origin) using HDAC substrate by AFC probe based immunoprecipitation assay
[4] = biological target: T1, Vascular endothelial growth factor receptor 2
[5] = biological target: Vascular endothelial growth factor receptor 3 (Homo sapiens, UniProt P35916); test: Inhibition of VEGFR3 (unknown origin)
[6] = biological target: Epidermal growth factor receptor (Homo sapiens, UniProt P00533); test: Inhibition of EGFR (unknown origin)
[7] = biological target: Receptor tyrosine-protein kinase erbB-2 (Homo sapiens, UniProt P04626); test: Inhibition of HER2 (unknown origin)
[8] = Inhibition of PI3K (unknown origin); design: species or system Homo sapiens
[9] = biological target: Serine/threonine-protein kinase B-raf (Homo sapiens, UniProt P15056, V600E); test: Inhibition of recombinant human GST-fused B-Raf V600E mutant using MEK1 as substrate measured after 60 mins by HTRF assay
[10] = Inhibition of PI3K (unknown origin) using PIP2 as substrate measured after 2 hrs by luciferase-luciferin […] assay; design: species or system Homo sapiens
[11] = biological target: Serine/threonine-protein kinase B-raf (Homo sapiens) (UniProt P15056); test: Inhibition of wild-type B-Raf (unknown origin) at 10 uM relative to control

Vascular endothelial growth factor receptor 1, sequence (P17948 whole entry): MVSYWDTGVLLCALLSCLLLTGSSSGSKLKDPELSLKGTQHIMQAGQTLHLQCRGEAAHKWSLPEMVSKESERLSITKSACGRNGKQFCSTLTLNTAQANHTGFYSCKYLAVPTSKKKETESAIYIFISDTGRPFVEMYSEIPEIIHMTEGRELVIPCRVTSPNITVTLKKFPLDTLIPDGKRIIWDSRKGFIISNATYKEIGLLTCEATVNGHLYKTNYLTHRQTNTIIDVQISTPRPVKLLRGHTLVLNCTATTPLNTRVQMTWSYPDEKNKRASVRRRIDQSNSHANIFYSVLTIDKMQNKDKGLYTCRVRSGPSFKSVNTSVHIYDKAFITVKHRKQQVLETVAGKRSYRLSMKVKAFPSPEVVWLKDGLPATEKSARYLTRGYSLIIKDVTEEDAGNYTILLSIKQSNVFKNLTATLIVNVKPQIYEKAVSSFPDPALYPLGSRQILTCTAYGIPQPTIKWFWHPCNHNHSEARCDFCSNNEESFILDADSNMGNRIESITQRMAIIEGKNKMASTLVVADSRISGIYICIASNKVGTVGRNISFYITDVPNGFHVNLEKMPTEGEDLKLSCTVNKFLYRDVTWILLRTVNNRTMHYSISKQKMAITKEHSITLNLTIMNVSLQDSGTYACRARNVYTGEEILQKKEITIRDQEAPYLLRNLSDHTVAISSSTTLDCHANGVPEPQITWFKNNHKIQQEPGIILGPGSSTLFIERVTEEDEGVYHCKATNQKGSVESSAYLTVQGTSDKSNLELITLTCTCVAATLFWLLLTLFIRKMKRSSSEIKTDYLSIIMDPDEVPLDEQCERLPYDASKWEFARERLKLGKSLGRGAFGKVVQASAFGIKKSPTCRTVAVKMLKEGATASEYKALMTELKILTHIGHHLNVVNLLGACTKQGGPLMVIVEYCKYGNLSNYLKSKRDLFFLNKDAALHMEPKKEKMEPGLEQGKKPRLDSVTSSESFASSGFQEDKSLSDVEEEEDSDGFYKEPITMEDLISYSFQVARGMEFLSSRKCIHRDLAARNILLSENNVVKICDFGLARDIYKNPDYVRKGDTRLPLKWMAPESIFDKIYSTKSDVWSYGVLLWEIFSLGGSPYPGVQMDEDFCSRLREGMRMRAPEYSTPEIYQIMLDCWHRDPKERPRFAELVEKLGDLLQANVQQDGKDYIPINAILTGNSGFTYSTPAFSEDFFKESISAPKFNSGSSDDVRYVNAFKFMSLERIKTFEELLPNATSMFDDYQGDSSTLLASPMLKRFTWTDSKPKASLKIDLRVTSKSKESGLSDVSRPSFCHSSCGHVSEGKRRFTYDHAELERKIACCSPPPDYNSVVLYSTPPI
T1 sequence (P35968 whole entry): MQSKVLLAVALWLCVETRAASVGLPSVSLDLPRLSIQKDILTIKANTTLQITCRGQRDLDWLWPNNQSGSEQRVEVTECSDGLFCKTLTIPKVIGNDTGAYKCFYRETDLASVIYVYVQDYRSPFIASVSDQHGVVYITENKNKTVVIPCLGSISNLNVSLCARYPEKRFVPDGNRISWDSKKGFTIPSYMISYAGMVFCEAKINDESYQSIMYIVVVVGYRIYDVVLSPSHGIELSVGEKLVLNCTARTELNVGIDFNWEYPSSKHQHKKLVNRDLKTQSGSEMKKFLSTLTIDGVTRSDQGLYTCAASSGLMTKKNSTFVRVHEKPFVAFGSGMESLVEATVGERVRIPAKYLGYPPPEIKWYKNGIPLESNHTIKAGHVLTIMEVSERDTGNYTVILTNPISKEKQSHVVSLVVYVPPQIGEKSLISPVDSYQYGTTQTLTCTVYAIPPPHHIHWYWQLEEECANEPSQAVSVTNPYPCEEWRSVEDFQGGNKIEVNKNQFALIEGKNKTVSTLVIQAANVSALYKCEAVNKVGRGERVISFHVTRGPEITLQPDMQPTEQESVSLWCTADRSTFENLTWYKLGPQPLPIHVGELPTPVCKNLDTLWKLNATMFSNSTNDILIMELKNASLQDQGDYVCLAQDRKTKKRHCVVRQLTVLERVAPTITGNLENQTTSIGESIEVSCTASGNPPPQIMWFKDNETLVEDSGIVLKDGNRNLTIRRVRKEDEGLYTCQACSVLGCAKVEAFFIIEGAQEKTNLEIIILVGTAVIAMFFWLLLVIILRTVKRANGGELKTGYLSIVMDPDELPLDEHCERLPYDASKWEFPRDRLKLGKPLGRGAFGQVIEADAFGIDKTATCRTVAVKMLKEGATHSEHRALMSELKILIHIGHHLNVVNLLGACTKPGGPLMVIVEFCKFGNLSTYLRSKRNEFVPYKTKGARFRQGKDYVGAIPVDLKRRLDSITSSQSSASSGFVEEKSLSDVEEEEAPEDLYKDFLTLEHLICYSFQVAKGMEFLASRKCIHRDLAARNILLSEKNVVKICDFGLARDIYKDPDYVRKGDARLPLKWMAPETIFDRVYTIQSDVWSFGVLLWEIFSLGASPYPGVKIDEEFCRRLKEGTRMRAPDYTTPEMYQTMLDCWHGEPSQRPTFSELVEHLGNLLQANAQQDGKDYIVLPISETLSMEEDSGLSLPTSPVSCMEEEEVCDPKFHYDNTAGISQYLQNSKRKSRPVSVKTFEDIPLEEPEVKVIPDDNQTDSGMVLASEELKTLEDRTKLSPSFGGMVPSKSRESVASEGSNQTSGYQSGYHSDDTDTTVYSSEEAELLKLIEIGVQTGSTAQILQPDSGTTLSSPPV
Vascular endothelial growth factor receptor 3, sequence (P35916 whole entry): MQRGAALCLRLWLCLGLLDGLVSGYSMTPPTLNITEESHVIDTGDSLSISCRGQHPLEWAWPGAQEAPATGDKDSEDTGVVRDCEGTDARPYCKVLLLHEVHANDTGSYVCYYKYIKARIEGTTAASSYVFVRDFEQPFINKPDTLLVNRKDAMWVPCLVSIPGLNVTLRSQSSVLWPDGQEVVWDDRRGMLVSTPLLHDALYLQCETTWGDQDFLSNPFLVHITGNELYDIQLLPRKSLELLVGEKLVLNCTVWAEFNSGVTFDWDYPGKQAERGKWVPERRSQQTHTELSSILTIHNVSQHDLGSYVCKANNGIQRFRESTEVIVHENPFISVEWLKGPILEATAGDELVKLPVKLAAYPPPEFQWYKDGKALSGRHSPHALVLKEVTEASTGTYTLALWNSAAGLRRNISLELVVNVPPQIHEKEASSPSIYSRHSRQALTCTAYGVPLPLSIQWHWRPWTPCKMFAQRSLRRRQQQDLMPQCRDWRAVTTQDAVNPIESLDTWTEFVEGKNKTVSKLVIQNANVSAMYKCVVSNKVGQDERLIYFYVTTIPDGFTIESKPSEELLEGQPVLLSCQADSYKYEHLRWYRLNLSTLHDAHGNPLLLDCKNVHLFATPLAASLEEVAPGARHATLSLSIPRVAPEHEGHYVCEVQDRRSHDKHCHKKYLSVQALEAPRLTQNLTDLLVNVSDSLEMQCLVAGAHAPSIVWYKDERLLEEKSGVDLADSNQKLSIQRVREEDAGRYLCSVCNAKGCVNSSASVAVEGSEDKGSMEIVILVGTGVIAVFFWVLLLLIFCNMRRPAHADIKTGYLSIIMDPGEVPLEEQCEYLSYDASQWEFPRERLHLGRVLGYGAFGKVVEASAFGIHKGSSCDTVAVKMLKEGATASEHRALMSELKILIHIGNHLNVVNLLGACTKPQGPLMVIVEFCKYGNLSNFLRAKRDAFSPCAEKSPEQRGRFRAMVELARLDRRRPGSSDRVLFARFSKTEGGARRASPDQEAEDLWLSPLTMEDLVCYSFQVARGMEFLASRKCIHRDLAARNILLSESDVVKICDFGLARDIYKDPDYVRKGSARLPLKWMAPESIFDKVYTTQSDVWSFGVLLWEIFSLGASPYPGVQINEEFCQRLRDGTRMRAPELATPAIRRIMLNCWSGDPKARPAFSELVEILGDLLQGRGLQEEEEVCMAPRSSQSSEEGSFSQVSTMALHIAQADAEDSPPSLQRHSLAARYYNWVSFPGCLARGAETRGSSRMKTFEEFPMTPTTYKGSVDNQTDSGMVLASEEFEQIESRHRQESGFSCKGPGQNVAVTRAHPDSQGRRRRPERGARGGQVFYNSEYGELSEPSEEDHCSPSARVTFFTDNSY
Serine/threonine-protein kinase B-raf, sequence (P15056 2-766 V600E limits assumed): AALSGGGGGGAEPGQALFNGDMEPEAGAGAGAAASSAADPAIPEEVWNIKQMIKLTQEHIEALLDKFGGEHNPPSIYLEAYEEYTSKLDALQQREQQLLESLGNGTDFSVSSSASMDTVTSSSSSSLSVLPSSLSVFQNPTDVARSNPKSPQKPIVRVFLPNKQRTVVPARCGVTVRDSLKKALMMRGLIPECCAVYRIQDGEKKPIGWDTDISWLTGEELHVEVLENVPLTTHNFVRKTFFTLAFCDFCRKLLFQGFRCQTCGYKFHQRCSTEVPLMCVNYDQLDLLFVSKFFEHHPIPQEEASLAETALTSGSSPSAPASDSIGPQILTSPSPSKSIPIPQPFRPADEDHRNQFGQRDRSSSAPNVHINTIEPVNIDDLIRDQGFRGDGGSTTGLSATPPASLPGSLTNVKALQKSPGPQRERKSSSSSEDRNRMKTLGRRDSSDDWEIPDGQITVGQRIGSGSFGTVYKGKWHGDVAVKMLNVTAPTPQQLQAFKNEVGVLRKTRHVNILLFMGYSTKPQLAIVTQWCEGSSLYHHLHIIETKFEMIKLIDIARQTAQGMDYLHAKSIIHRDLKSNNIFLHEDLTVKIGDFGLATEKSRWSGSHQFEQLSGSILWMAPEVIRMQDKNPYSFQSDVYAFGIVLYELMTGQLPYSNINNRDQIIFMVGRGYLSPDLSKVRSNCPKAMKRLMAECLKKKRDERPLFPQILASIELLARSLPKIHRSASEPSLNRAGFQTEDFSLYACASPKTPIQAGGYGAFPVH

O=c1cc(N2CCOCC2)oc2c(-c3ccccc3)cccc12 [LY-294002]
pIC50 [1]: 6.00

O=C(Nc1ccc(Nc2ccc([N+](=O)[O-])c3ncnc(O)c23)cc1)Nc1cccc(C(F)(F)F)c1
pIC50 [2]: 7.35

CCOc1cc2ncc(C#N)c(Nc3ccc(Cl)c(F)c3)c2cc1NC(=O)/C=C/CN(C)C
pIC50 [3]: 5.90

COc1cc2ncnc(Nc3ccc(CC(=O)Nc4cc(-c5cccs5)ccc4N)cc3)c2cc1OC
pIC50 (Histone deacetylase 1): 6.75

COc1cccc(NC(=O)N2CCCc3cc(Nc4ncnc5cc(OC)c(OC)cc45)ccc32)c1
pIC50 [4]: 7.28 | pIC50 [3]: 8.26 | pIC50 [5]: 7.85

Cc1cccc(NC(=O)Nc2ccc(Nc3ccc([N+](=O)[O-])c4ncnc(O)c34)cc2)c1
pIC50 [2]: 7.11

COc1cc2ncnc(Nc3ccc4c(c3)CCCN4C(=O)Nc3ccc(C(C)=O)cc3)c2cc1OC
pIC50 [4]: 7.52 | pIC50 [3]: 8.02 | pIC50 [5]: 7.76

CCOc1cc2ncc(C#N)c(Nc3ccc(OCc4ccccn4)c(F)c3)c2cc1NC(=O)/C=C/CN(C)C
pIC50 [6]: 7.04 | pIC50 [7]: 7.23

c1ccc2c(c1)ccn2-c1ncnc2ccc(-c3ccc4[nH]ccc4c3)cc12
pIC50 [8]: 5.00 to 7.00

O=C(Nc1ccc(Nc2ccc([N+](=O)[O-])c3ncnc(O)c23)cc1)Nc1cc(C(F)(F)F)ccc1Cl
pIC50 [2]: 7.92

O=C(Nc1ccc(Nc2ccc([N+](=O)[O-])c3ncnc(O)c23)cc1)Nc1cc(Cl)ccc1Cl
pIC50 [2]: 7.38

COc1cc2ncnc(Nc3ccc4c(c3)CCCN4C(=O)Nc3cccc(Cl)c3)c2cc1OC
pIC50 [4]: 7.52 | pIC50 [3]: 8.15 | pIC50 [5]: 8.11

Cc1ccc(CC[C@@H]2CCN2C)c(NC(=O)Nc2cccc(Oc3ccc4nc[nH]c(=O)c4c3)c2)c1
pIC50 [9]: 8.41

Cc1cc(N2CCC(F)(F)C2)cc2c(N3CCc4ccc(C(=O)N5CCC(N)CC5)cc4C3)ncnc12
pIC50 [10]: > 6.30

CCOCCCOc1cc2ncnc(Oc3ccc(NC(=O)Nc4ccc(F)c(C(F)(F)F)c4)cc3)c2cc1N
inhibition [11]: 98.9%
